Test results: patent publication US9637498B2, “Substituted thieno[2,3-C]pyridazine-6-carboxamide analogs as positive allosteric modulators of the muscarinic acetylcholine receptor M4” (Vanderbilt University, priority 2013, dated 2017)
pEC50: −log10 of the molar value.

Target: T1, mAChR M4 (Homo sapiens, UniProt P08173)
T1 construct: expressed in transfected cells; host or cells: CHO-K1 cells, also stably transfected with the chimeric G-protein Gqi5
T1 sequence (P08173 1-479): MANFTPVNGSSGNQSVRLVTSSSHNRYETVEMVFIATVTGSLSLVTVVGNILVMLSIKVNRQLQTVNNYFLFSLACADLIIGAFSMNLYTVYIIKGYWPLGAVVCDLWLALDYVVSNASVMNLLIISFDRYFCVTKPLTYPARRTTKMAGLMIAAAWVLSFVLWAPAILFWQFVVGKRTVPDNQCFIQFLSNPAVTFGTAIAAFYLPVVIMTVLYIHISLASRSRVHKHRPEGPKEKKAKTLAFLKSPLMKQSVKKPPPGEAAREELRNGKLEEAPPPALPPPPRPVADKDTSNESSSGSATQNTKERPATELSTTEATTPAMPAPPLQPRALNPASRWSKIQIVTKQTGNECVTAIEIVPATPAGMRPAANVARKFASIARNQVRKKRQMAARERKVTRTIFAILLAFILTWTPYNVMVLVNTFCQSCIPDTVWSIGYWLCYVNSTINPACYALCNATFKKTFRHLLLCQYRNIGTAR
Experiment: mAChR M4 cell-based functional assay (calcium mobilization, potentiation of EC20 acetylcholine response)
Settings: for pEC50: CHO-K1 cells expressing mAChR M4 (Gqi5), calcium flux, increase in EC20 acetylcholine response, >10,000 estimated where the curve has no plateau; for Emax at 30 µM: % ACh maximum at 30 μM
Excerpt: Chinese hamster ovary (CHO-K1) cells stably expressing rat (r)M1 were purchased from the American Type Culture Collection and cultured according to their indicated protocol. CHO cells stably expressing human (h)M2, hM3, and hM5 were described previously (Levey et al., 1991); hM1 and hM4 cDNAs were purchased from Missouri S&T cDNA Resource; rM4 cDNA was provided by T. I. Bonner (National Institutes of Health, Bethesda, Md.). rM2 and rM3 were cloned from a rat brain cDNA library and sequence verified. hM1, rM2, rM3, hM4, and rM4 cDNAs were used to stably transfect CHO-K1 cells purchased from the American Type Culture Collection using Lipofectamine 2000. To make stable rM2, hM2, hM4, and rM4 cell lines for use in calcium mobilization assays, these cells also were stably transfected with a chimeric G-protein (Gqi5) (provided by B. R. Conklin, University of California, San Francisco) using Lipofectamine 2000. rM1, hM1, rM3, hM3, rM5, and hM5 cells were grown in Ham's F-12 medium containing 10% heat-inactivated fetal bovine serum (FBS), 20 mM HEPES, and 50 µg/mL G418 sulfate. rM2-Gqi5, hM2-Gqi5, and hM4-Gqi5 cells were grown in the same medium also containing 500 µg/mL Hygromycin B. Stable rM4-Gqi5 cells were grown in DMEM containing 10% heat-inactivated FBS, 20 mM HEPES, 400 μg/mL G418 sulfate, and 500 μg/mL Hygromycin B.
For high throughput measurement of agonist-evoked increases in intracellular calcium, CHO-K1 cells stably expressing muscarinic receptors were plated in growth medium lacking G418 and hygromycin at 15,000 cells/20 μL/well in Greiner 384-well black-walled, tissue culture (TC)-treated, clear-bottom plates (VWR). Cells were incubated overnight at 37° C. and 5% CO2. The next day, cells were washed using an ELX 405 (BioTek) with four washes (80 μL) of assay buffer then aspirated to 20 μL. Next, 20 μL of 16 μM Fluo-4/acetoxymethyl ester (Invitrogen, Carlsbad, Calif.) prepared as a 2.3 mM stock in DMSO and mixed in a 1:1 ratio with 10% (w/v) Pluronic F-127 and diluted in assay buffer was added to the wells and the cell plates were incubated for 50 min at 37° C. and 5% CO2. Dye was removed by washing with the ELX 405 (four 80 μL washes of assay buffer) then aspirated to 20 μL. Compound master plates were formatted in an 11 point CRC format (1:3 dilutions) in 100% DMSO with a starting concentration of 10 mM using the BRAVO liquid handler (Agilent). Test compound CRCs were then transferred to daughter plates (240 nL) using the Echo acoustic plate reformatter (Labcyte, Sunnyvale, Calif.) and then diluted into assay buffer (40 μL) to a 2× stock using a Thermo Fisher Combi (Thermo Fisher Scientific, Waltham, Mass.).
Calcium flux was measured using the Functional Drug Screening System (FDSS) 6000 (Hamamatsu Corporation, Tokyo, Japan) as an increase in the fluorescent static ratio. Compounds were applied to cells (20 μL, 2×) using the automated system of the FDSS 6000 at 4 s into the 300 s protocol and the data were collected at 1 Hz. At 144 s into the 300 s protocol, 10 μL of an EC20 concentration of the muscarinic receptor agonist acetylcholine was added (5×), followed by the addition of 12 μL an EC80 concentration of acetylcholine at the 230 s time point (5×). Agonist activity was analyzed as a concentration-dependent increase in calcium mobilization upon compound addition. Positive allosteric modulator activity was analyzed as a concentration-dependent increase in the EC20 acetylcholine response. Antagonist activity was analyzed as a concentration-dependent decrease in the EC80 acetylcholine response. Concentration-response curves were generated using a four-parameter logistical equation in XLFit™ curve fitting software (IDBS, Bridgewater, N.J.) for Excel (Microsoft, Redmond, Wash.) or Prism (GraphPad Software, Inc., San Diego, Calif.). […]

Structure (SMILES)	pEC50	Emax at 30 µM [%]
Cc1nnc2sc(C(=O)N3CC(c4ccccc4)C3)c(C3CC3)c2c1C [B8]	< 5.00	
Cc1nnc2sc(C(=O)NC3COC3)cc2c1C [B6]	5.41	76
Cc1nnc2sc(C(=O)NC3CC(F)(F)C3)c(C3CC3)c2c1C [B17]	< 5.00	35
COc1ccc(CNC(=O)c2sc3nnc(C)c(C)c3c2C)cc1F [B9]	5.70	59
Cc1nnc2sc(C(=O)NC3CN(c4ccc(C(F)(F)F)nc4)C3)cc2c1C [B3]	6.00	53
COc1ccc(C2CC2NC(=O)c2sc3nnc(C)c(C)c3c2C)cc1 (centres unmarked) [B21]	5.68	51
Cc1nnc2sc(C(=O)NC3COC3)c(C)c2c1C [B23]	< 5.00	65
Cc1nnc2sc(C(=O)NC3CN(c4ccc(C(F)(F)F)nc4)C3)c(C3CC3)c2c1C [B22]	5.51	24
COc1ccc(C2CC2NC(=O)c2sc3nnc(C)c(C)c3c2C2CC2)cc1 (centres unmarked) [B12]	< 5.00	
Cc1nnc2sc(C(=O)NC3COC3)c(C3CC3)c2c1C [B13]	~5.05	46
COc1ccc(CNC(=O)c2sc3nnc(C)c(C)c3c2Br)cc1 [B2]	5.43	36
Cc1nnc2sc(C(=O)N3CCC(c4ccccc4)C3)c(C3CC3)c2c1C (centres unmarked) [B16]	< 5.00	
Cc1nnc2sc(C(=O)NC3CCN(c4ccccc4)C3)cc2c1C (centres unmarked) [B5]	< 5.00	
COc1ccc(CNC(=O)c2sc3nnc(C)c(C)c3c2C2CC2)cc1F [B18]	5.36	38
Cc1nnc2sc(C(=O)NC3CC3)c(C)c2c1C [B14]	< 5.00	68
Cc1nnc2sc(C(=O)NC3CC3)cc2c1C [B7]	5.37	72
Cc1nnc2sc(C(=O)NCc3ccc(S(=O)(=O)C(F)(F)F)cc3)c(Br)c2c1C [B1]	< 5.00	
Cc1nnc2sc(C(=O)NC3CCC3)c(C3CC3)c2c1C [B15]	5.28	33
Cc1nnc2sc(C(=O)N3CCC(c4ccccc4)C3)c(C)c2c1C (centres unmarked) [B19]	< 5.00	
Cc1nnc2sc(C(=O)NC3CN(c4cccnc4)C3)c(C)c2c1C [B20]	6.04	69
COc1ccc(CNC(=O)c2cc3c(C)c(C)nnc3s2)cc1F [B4]	5.85	68
Cc1nnc2sc(C(=O)NC3CC3)c(C3CC3)c2c1C [B11]	< 5.00	35
